From patent publication US7858738B2, “Synthetic human peptides and pharmaceutical compositions comprising them for the treatment of systemic lupus erythematosus” (Yeda Research and Development Co., Ltd., priority 2001, dated 2010)

Tests used:
Type in all cases: in vivo
[1] = tested on: (NZB×NZW)F1 mice; test: Treatment of established SLE-like disease in (NZB×NZW)F1 mice; conditions: for anti-dsDNA autoantibody O.D. values: sera 1:1250, end of treatment, PBS-treated 0.586±0.1
Protocol: (§1) Induction and treatment of experimental SLE. In order to induce experimental SLE, BALB/c mice were immunized with 1-2 μg of the human mAb 16/6Id and boosted 3 weeks later. For the prevention of experimental SLE, mice were given hCDR1 or hCDR3 (mCDR1 or revmCDR1 as control peptide in Example 12) intravenously (i.v.) or s.c. concomitant with the immunization, and were injected weekly thereafter for 5 weeks. Treatment of an established disease started three and a half months following disease induction with the 16/6Id, when clinical manifestations were already observed. In Example 12, mice received 10 weekly injections (i.v. or s.c.) of mCDR1 or revmCDR1 at a dose of 100 μg/mouse. Prevention and treatment of SLE-like disease in (NZB×NZW)F1 mice with the hCDR1 or mCDR1 peptide. For prevention of SLE, mice at the age of 2 months, before disease manifestations are observed, were injected s.c. with hCDR1 (or mCDR1 in Example 12, 250 μg/mouse) once a week for 10 weeks. To treat an established disease, mice at the age of 5-7 months were injected with hCDR1 (in Example 12, mCDR1 s.c., 250 μg/mouse) once a week for 10 weeks. Proliferative Responses. PBL were isolated from heparinized venous blood by Ficoll-Hypaque (Pharmacia) density-gradient centrifugation. All assays were performed, in triplicate, in flat-bottomed microtiter plates (Falcon, Becton Dickinson, Oxmard, Calif., USA) in which 2×10^5 PBL were cultured in enriched RPMI-1640 as described (Dayan et al., 2000). The PBL were exposed to various concentrations (0.1-40 μg/well) of the human anti-DNA 16/6Id mAb with and without the addition of the various CDR-based peptides at a concentration of at least 10-fold excess over that of the 16/6Id. Phytohemagglutinin (PHA; 2 μg/well) was used as a control for culture conditions at each experiment. The cultures were incubated in 7.5% CO2 at 37° C. for 6 days. Eighteen hours before the cells were harvested, [^3H]-thymidine (0.5μ Ci of 5 Ci/mmol) (Nuclear Research Center, Negev, Israel) was added to all cultures. Results are expressed as the mean thymidine incorporation in counts per minute (CPM) of triplicate culture±SD, or as stimulation index (S.I.; the ratio of mean CPM at the optimal concentration of the human 16/6Id to the mean CPM in the presence of medium alone). A S.I.≧2 was considered a positive response (Dayan et al., 2000). Inhibition (the ratio of mean CPM in the presence of the 16/6Id and various CDR-based peptides to the mean CPM with the 16/6Id without the CDR-based peptide) above 50% was considered positive. Induction of Cytokine Production. Mice that were immunized with the human 16/6Id mAb and either treated or not with the CDR-based peptide, were killed at different periods during or after treatment with the peptide. Splenocytes and lymph node cells (LNC) were harvested and incubated (5×10^6/ml) in the presence of the 16/6Id. Supernatants were collected after 48 and 72 h. Assessment of Cytokines in the Supernatants. Supernatants were collected 48 hours following the initiation of the cultures and stored at −70° C. Measurements of IL-2, IL-10, IFN-γ, and TNF-α were performed by ELISA by using the relevant standards, capture and detecting Abs (Pharmingen) according to the manufacturer's instructions. TGF-β was determined by an ELISA. Briefly, plates were coated with the recombinant human TGF-β1 sRIII/Fc chimera (R & D Systems Inc., Minneapolis, Minn., USA), and the second Ab used was the biotinylated anti-human TGF-β1 antibody (R & D Systems Inc.). The substrate solution used was TMB color Reagent (Helix Diagnostics, West Sacramento, Calif.), and enzyme activity was evaluated by using 570- and 630-nm filters. Detection of SLE-Associated Clinical and Pathological Manifestations. Proteinuria was measured semiquantitatively by using Combistix kit (Ames Division, Bayer Diagnostics, Newbury, U.K.). White blood cells (WBC, for leukopenia) were counted after a 10-fold dilution of heparinized blood in distilled water containing 1% acetic acid (vol/vol). […]

[2] = tested on: MMP-9; test: MMP-9 activity in sera of (NZB×NZW)F1 mice (gel zymography); conditions: 300 μg s.c. once a week from age 7 months; sera after 5 injections; FIG. 23
Protocol: as §1, with “A S.I.≧2 was considered a positive response (Dayan et al., 2000). Inhibition (the ratio of mean CPM in the presence of the 16/6Id and various CDR-based peptides to the mean CPM with the 16/6Id without the CDR-based peptide) above 50% was considered positive. Induction of Cytokine Production. Mice that were immunized with the human 16/6Id mAb and either treated or not with the CDR-based peptide, were killed at different periods during or after treatment with the peptide. Splenocytes and lymph node cells (LNC) were harvested and incubated (5×10^6/ml) in the presence of the 16/6Id. Supernatants were collected after 48 and 72 h. Assessment of Cytokines in the Supernatants. Supernatants were collected 48 hours following the initiation of the cultures and stored at −70° C. Measurements of IL-2, IL-10, IFN-γ, and TNF-α were performed by ELISA by using the relevant standards, capture and detecting Abs (Pharmingen) according to the manufacturer's instructions.” left out, “Briefly, plates were coated with the recombinant human TGF-β1 sRIII/Fc chimera (R & D Systems Inc., Minneapolis, Minn., USA), and the second Ab used was the biotinylated anti-human TGF-β1 antibody (R & D Systems Inc.).” left out, “Detection of SLE-Associated Clinical and Pathological Manifestations.” left out

[3] = tested on: BALB/c mice; test: Treatment of 16/6Id-induced experimental SLE in BALB/c mice; conditions: for mice with immune complex deposits in kidneys: 7 months after booster, untreated 9/10; for Anti-dsDNA O.D. (1:50), Mean ± SD: 16/6Id injected 1.1 ± 0.6; for Anti-dsDNA antibodies at a dilution of: 1:250, Mean ± SD: 16/6Id alone 1.16 ± 0.37; for Intensity of ICD In kidneys, Mean ± SD: 16/6Id alone 1.86 ± 0.38; for Anti-16/6 Id antibodies at a dilution of 1:1000, Mean ± SD: 16/6Id alone 2.55 ± 0.09; for Anti-dsDNA antibodies 1:1250, Mean ± SD: 16/6Id alone 0.47 ± 0.3; for Anti-16/6 Id antibodies 1:10000, Mean ± SD: 16/6Id alone 0.89 ± 0.1; for Intensity of ICD in kidneys, Mean ± SD: 16/6Id alone 1.6 ± 0.55
Protocol: as §1

[4] = age 7 months, 10 weeks, 100 μg/mouse or 300 μg/mouse
[5] = Table 11, 200 μg/mouse for 10 weeks
[6] = Table 11, 300 μg/mouse for 10 weeks
[7] = Table 11, 400 μg/mouse for 10 weeks

Sequence: GYYWSWIRQPPGKGEEWIG (Human) [hCDR1, 19-mer peptide based on the CDR1 of the heavy chain of the human 16/6Id mAb]
- anti-dsDNA autoantibody O.D. values ([1]; 50 μg/mouse s.c. weekly for 10 weeks from age 5 and a half months): 0.27±0.1 O.D.
- number and intensity of immune complexes in kidney sections ([1]; 100 μg dose, mice sacrificed at 9 months, FIGS. 11A-11D): reduced the number of immune complexes as well as their intensity
- anti-dsDNA autoantibody O.D. values ([1]; 100 μg/mouse s.c. weekly for 10 weeks from age 5 and a half months): 0.37±0.1 O.D.
- anti-dsDNA autoantibody O.D. values ([1]; 200 μg/mouse s.c. weekly for 10 weeks from age 5 and a half months): 0.29±0.1 O.D.
- Proteinuria g/L ± SEM ([1]; 300 μg/mouse s.c. weekly for 10 weeks at the age of 7 months, untreated 4.80 ± 2.56): 1.08 ± 0.38 g/L
- Proteinuria g/L ± SEM ([1]; 300 μg/mouse, age 7 months, following treatment No 5, untreated 2.65 ± 1.76): 0.61 ± 0.23 g/L
- Proteinuria g/L ± SEM ([1]; 300 μg/mouse, age 7 months, following treatment No 7, untreated 3.89 ± 2.73): 0.65 ± 0.32 g/L
- Proteinuria g/L ± SEM ([1]; 300 μg/mouse, age 7 months, following treatment No 9, untreated 7.55 ± 3.95): 1.02 ± 0.39 g/L
- Immune Complex Deposits ± SEM ([1]; 300 μg/mouse, age 7 months, intensity 0=no ICD to 3=severe and extremely intense ICD, untreated 2.57 ± 0.29, p = 0.035): 1.44 ± 0.41
- Proteinuria g/L ± SEM ([1]; 400 μg/mouse at the age of 6 months, untreated 4.99 ± 2.53): 0.77 ± 0.32 g/L
- Immune Complex Deposits ± SEM ([1]; 400 μg/mouse, age 6 months, intensity score 0-3, untreated 2 ± 0.29, p = 0.05): 1.42 ± 0.19
- anti-DNA antibody titers in sera ([1]; 7-month old mice, 300 μg s.c. weekly for 10 weeks): mild reduction
- anti-dsDNA autoantibody titers ([1]; 50, 100 and 200 μg/mouse s.c. weekly for 10 weeks from age 5 and a half months): moderate reduction
- anti-DNA autoantibody titers [1, 4]: moderate reduction
- proteinuria in comparison to the PBS-treated group [1, 4]: reduction
- kidney disease ([1]; age 7 months, 10 weeks, 100 or 300 μg/mouse, more significant effect with 300 μg): ameliorated
- kidney disease ([1]; ten-week treatment, 50 μg dose less efficient than 100 and 200 μg): reduced significantly
- activity of MMP-9 in pooled sera [2]: down regulated
- mice with immune complex deposits in kidneys ([3]; 100 μg/mouse): 3/10
- mice with immune complex deposits in kidneys ([3]; 300 μg/mouse for 10 weeks): 2/9
- Proteinuria g/l, Mean ± SD ([3]; Table 10, 100 μg, end of treatment, 16/6Id injected 0.65 ± 0.36): 0.3 ± 0.02 g/L
- Anti-dsDNA O.D. (1:50), Mean ± SD ([3]; Table 10, 100 μg, end of treatment): 0.3 ± 0.2 O.D.
- WBC/mm^3, Mean ± SD ([3]; Table 10, 100 μg, end of treatment, 16/6Id injected 3260 ± 920): 6090 ± 2160 /mm^3
- Proteinuria g/l, Mean ± SD ([3]; Table 10, 300 μg, end of treatment, 16/6Id injected 0.65 ± 0.36): 0.34 ± 0.25 g/L
- Anti-dsDNA O.D. (1:50), Mean ± SD ([3]; Table 10, 300 μg, end of treatment): 0.55 ± 0.3 O.D.
- WBC/mm^3, Mean ± SD ([3]; Table 10, 300 μg, end of treatment, 16/6Id injected 3260 ± 920): 5890 ± 2660 /mm^3
- Proteinuria g/l, Mean ± SD ([3]; Table 11, 200 μg/mouse for 10 weeks, 16/6Id alone 0.5 ± 0.34): 0.13 ± 0.16 g/L
- Anti-dsDNA antibodies at a dilution of: 1:250, Mean ± SD [3, 5]: 0.69 ± 0.39
- Intensity of ICD In kidneys, Mean ± SD [3, 5]: 0.57 ± 0.97
- Anti-16/6 Id antibodies at a dilution of 1:1000, Mean ± SD [3, 5]: 2.7 ± 0.12
- WBC/mm^3, Mean ± SD ([3]; Table 11, 200 μg/mouse for 10 weeks, 16/6Id alone 2871 ± 1205): 5625 ± 1659 /mm^3
- Proteinuria g/l, Mean ± SD ([3]; Table 11, 300 μg/mouse for 10 weeks, 16/6Id alone 0.5 ± 0.34): 0.16 ± 0.16 g/L
- Anti-dsDNA antibodies at a dilution of: 1:250, Mean ± SD [3, 6]: 0.45 ± 0.24
- Intensity of ICD In kidneys, Mean ± SD [3, 6]: 0.75 ± 0.71
- Anti-16/6 Id antibodies at a dilution of 1:1000, Mean ± SD [3, 6]: 2.8 ± 0.11
- WBC/mm^3, Mean ± SD ([3]; Table 11, 300 μg/mouse for 10 weeks, 16/6Id alone 2871 ± 1205): 4677 ± 1508 /mm^3
- Proteinuria g/l, Mean ± SD ([3]; Table 11, 400 μg/mouse for 10 weeks, 16/6Id alone 0.5 ± 0.34): 0.11 ± 0.15 g/L
- Anti-dsDNA antibodies at a dilution of: 1:250, Mean ± SD [3, 7]: 0.8 ± 0.39
- Intensity of ICD In kidneys, Mean ± SD [3, 7]: 0.71 ± 0.76
- Anti-16/6 Id antibodies at a dilution of 1:1000, Mean ± SD [3, 7]: 2.75 ± 0.1
- WBC/mm^3, Mean ± SD ([3]; Table 11, 400 μg/mouse for 10 weeks, 16/6Id alone 2871 ± 1205): 4012 ± 1421 /mm^3
- Anti-dsDNA antibodies 1:1250, Mean ± SD ([3]; Table 12, 200 μg/mouse weekly): 0.23 ± 0.1
- Proteinuria g/l, Mean ± SD ([3]; Table 12, 200 μg/mouse weekly, 16/6Id alone 0.58 ± 0.34): 0.17 ± 0.15 g/L
- Anti-16/6 Id antibodies 1:10000, Mean ± SD ([3]; Table 12, 200 μg/mouse weekly): 0.96 ± 0.2
- Intensity of ICD in kidneys, Mean ± SD ([3]; Table 12, 200 μg/mouse weekly): 1 ± 0.63
- WBC/mm^3, Mean ± SD ([3]; Table 12, 200 μg/mouse weekly, 16/6Id alone 2800 ± 300): 4900 ± 800 /mm^3
- Anti-dsDNA antibodies 1:1250, Mean ± SD ([3]; Table 12, 300 μg/mouse weekly): 0.2 ± 0.1
- Proteinuria g/l, Mean ± SD ([3]; Table 12, 300 μg/mouse weekly, 16/6Id alone 0.58 ± 0.34): 0.085 ± 0.01 g/L
- Anti-16/6 Id antibodies 1:10000, Mean ± SD ([3]; Table 12, 300 μg/mouse weekly): 0.93 ± 0.1
- Intensity of ICD in kidneys, Mean ± SD ([3]; Table 12, 300 μg/mouse weekly): 0.5 ± 0.5
- WBC/mm^3, Mean ± SD ([3]; Table 12, 300 μg/mouse weekly, 16/6Id alone 2800 ± 300): 5800 ± 300 /mm^3
